Tests used:
[1] = Chemical stability of the API against moisture / wet granulation; format: physicochemical
[2] = Bulk densities (poured, tapped; Ph. Eur. 2.9.15) and Hausner factor of powders; format: physicochemical; details: for Hausner Factor (ρT/ρP) / Poured density (ρP) / Tapped density (ρT): un-milled drug substance
Method: Bulk density is measured according to Ph. Eur. 2.9.15 (European Pharmacopoeia, 4. Ed.) as poured density. The tapped density is measured according to Ph. Eur. 2.9.15 (see also Voigt R., Lehrbuch der pharmazeutischen Technologie [Textbook of Pharmaceutical Technology], Verlag Chemie, 5th Edition, page 148). The Hausner factor is a measure for the flowability/compressibility of powders and ideally should be close to 1. […] They range from 0.12 to 0.40 g/mL, caused by different needle lengths (Table 2). The roller compaction step was introduced for densification of the material (see Table 3), which may have • a variability of the poured density between […] (see Table 1) and • a Hausner Factor between 1.05 and 1.61 (see Table 1).

[3] = Tablet content uniformity (RSD) before and after roller compaction and sieving; format: physicochemical; details: roller compaction, Sieve A
[4] = Phase I pharmacokinetics of BIBW 2992 monotherapy in cancer patients with advanced solid tumors; format: in vivo, human (cancer patients)
Method: In four Phase I studies in cancer patients with various advanced solid tumors the pharmacokinetik (PK) characteristics of BIBW 2992 were analyzed. Representative for all of the studies and all the tested dose groups (10 to 100 mg) the 40 mg dose group from one trial is being described in more detail. […] BIBW 2992 plasma concentrations increased after oral administration with peak plasma concentrations mostly around 2-5 hours after dosing. Plasma concentrations declined within the next hours (up to 9 h after dosing), displaying a first disposition phase.
The variability (gCV=geometric coefficient of variation) of the plasma concentrations of the active substance at the different time points was 109-159% up to 9 hours after drug administration but 66.9 to 72.9% at later time points (24 hours after drug administration).

[5] = Phase I pharmacokinetics of BIBW 2992 together with docetaxel in cancer patients; format: in vivo, human (cancer patients); details: once daily dosing, visual inspection
[6] = batch 1, roller compaction, Sieve A, Sieve B
[7] = batch 1, roller compaction, Sieve A, Sieve C
[8] = batch 1, roller compaction, Sieve A, no sieving 2
[9] = batch 2, roller compaction, Sieve A, Sieve C
[10] = batch 3, roller compaction, Sieve A, Sieve C
[11] = 10 to 100 mg, qd dosing, single dose and steady state

For `CN(C)C/C=C/C(=O)Nc1cc2c(Nc3ccc(F)c(Cl)c3)ncnc2cc1O[C@H]1CCOC1.O=C(O)/C=C\C(=O)O.O=C(O)/C=C\C(=O)O` [BIBW 2992 MA2], which “chemical stability against moisture” value ([1]; drug substance as described in WO 2005/037824) is on record?
Its value is “susceptibility against moisture”.

What about the “stability during wet granulation” value ([1]; wet granulation processing) of the same compound?
Its value is “underwent hydrolytical decomposition and further degradation reaction”.

And the Poured density ([2]; Table 3, drug substance batch 1, before processing)?
The Poured density was 0.12 g/mL.

And the Poured density ([2]; Table 3, drug substance batch 2, before processing)?
The Poured density was 0.31 g/mL.

What about the Poured density ([2]; Table 3, drug substance batch 3, before processing) of the same compound?
The Poured density was 0.40 g/mL.

And the “Poured density of Final Blend” value ([2]; batch 1, no roller compaction, no sieving)?
Its value is 0.40 g/mL.

And the “Poured density of Compacted Intermediate of BIBW 2992 MA2” value (“Poured density … of BIBW 2992 MA2” for short) [2, 6]?
Its value is 0.29 g/mL.

What about the “Poured density of Final Blend” value [2, 6] of the same compound?
Its value is 0.53 g/mL.

What about the “Poured density … of BIBW 2992 MA2” value [2, 7] of the same compound?
Its value is 0.24 g/mL.

What about the “Poured density of Final Blend” value [2, 7] of the same compound?
The value was 0.53 g/mL.

What about the “Poured density … of BIBW 2992 MA2” value [2, 8] of the same compound?
Its value is 0.33 g/mL.

And the “Poured density of Final Blend” value [2, 8]?
The value was 0.56 g/mL.

What about the “Poured density … of BIBW 2992 MA2” value [2, 9] of the same compound?
The value was 0.41 g/mL.

What about the “Poured density of Final Blend” value [2, 9] of the same compound?
The value was 0.60 g/mL.

And the “Poured density … of BIBW 2992 MA2” value [2, 10]?
Its value is 0.36 g/mL.

And the “Poured density of Final Blend” value [2, 10]?
The value was 0.60 g/mL.

What about the “Hausner Factor (ρT/ρP)” value ([2]; batch 0) of the same compound?
The value was 1.20.

What about the “Poured density (ρP)” value ([2]; batch 0) of the same compound?
The value was 0.23 g/mL.

And the “Tapped density (ρT)” value ([2]; batch 0)?
The value was 0.28 g/mL.

And the “Hausner Factor (ρT/ρP)” value ([2]; batch 1)?
Its value is 1.33.

And the “Poured density (ρP)” value ([2]; batch 1)?
The value was 0.12 g/mL.

And the “Tapped density (ρT)” value ([2]; batch 1)?
Its value is 0.16 g/mL.

What about the “Hausner Factor (ρT/ρP)” value ([2]; batch 2) of the same compound?
The value was 1.08.

And the “Poured density (ρP)” value ([2]; batch 2)?
The value was 0.40 g/mL.

And the “Tapped density (ρT)” value ([2]; batch 2)?
The value was 0.43 g/mL.

What about the “Hausner Factor (ρT/ρP)” value ([2]; batch 3) of the same compound?
The value was 1.26.

What about the “Poured density (ρP)” value ([2]; batch 3) of the same compound?
Its value is 0.31 g/mL.

What about the “Tapped density (ρT)” value ([2]; batch 3) of the same compound?
The value was 0.39 g/mL.

And the “RSD- Tablet Content (High Dose)” value ([3]; batch 1, Sieve B)?
The value was 1.4%.

And the “RSD- Tablet Content (Low Dose)” value ([3]; batch 1, Sieve B)?
The value was 3.6%.

What about the “RSD- Tablet Content (High Dose)” value ([3]; batch 1, Sieve C) of the same compound?
Its value is 1.0%.

What about the “RSD- Tablet Content (Low Dose)” value ([3]; batch 1, Sieve C) of the same compound?
The value was 1.4%.

And the “RSD- Tablet Content (High Dose)” value ([3]; batch 1, no sieving 2)?
The value was 3.4%.

And the “RSD- Tablet Content (Low Dose)” value ([3]; batch 1, no sieving 2)?
Its value is 7.7%.

And the “RSD- Tablet Content (High Dose)” value ([3]; batch 2, Sieve C)?
Its value is 0.8%.

And the “RSD- Tablet Content (High Dose)” value ([3]; batch 3, Sieve C)?
Its value is 1.7%.

Which results are given for `CN(C)C/C=C/C(=O)Nc1cc2c(Nc3ccc(F)c(Cl)c3)ncnc2cc1O[C@H]1CCOC1` [BIBW 2992, 4-[(3-chloro-4-fluorophenyl)amino]-6-{[4-(N,N-dimethylamino)-1-oxo-2-buten-1-yl]amino}-7-((S)-tetrahydrofuran-3-yloxy)-quinazoline]?
variability (gCV) of the plasma concentrations ([4]; 40 mg dose group, n=17, time points up to 9 hours after drug administration): 109-159%; disposition kinetics ([4]; 40 mg once daily oral, day 27 of Treatment Period 1): at least biexponential disposition kinetics; time of peak plasma concentrations after dosing ([4]; 40 mg once daily oral, day 27 of Treatment Period 1, n=17): 2 to 5 h; gMean AUCτ,ss dose dependence [4, 11]: increased in a dose-proportional manner; gMean Cmax,ss dose dependence [4, 11]: increased in a dose-proportional manner; Cpre,ss (plasma concentration before drug administration at steady state) dose dependence ([4]; various clinical trials, visual inspection, data not shown): no deviation from dose-proportionality; AUC and Cmax dose dependence [5]: no sign for a deviation from a dose proportional increase

From US8545884B2, “Solid pharmaceutical formulations comprising BIBW 2992” (Boehringer Ingelheim International GmbH, priority 2008, dated 2013)
